Experimental data reported in PubChem BioAssay (NCI).
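All cell lines were grown in 96-well plates and treated with compound for 48 hours. The concentration for 50% growth inhibition is given as GI50. The concentration for full growth arrest is given as TGI.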

Experiments:
Test in all cases: NCI anticancer screen, dose series, 48 h
M19-MEL melanoma = system: M19-MEL melanoma
HCC-2998 colon = system: HCC-2998 colon
XF 498 CNS = system: XF 498 CNS
786-0 renal = system: 786-0 renal
DMS 114 small cell lung = system: DMS 114 small cell lung
UACC-257 melanoma = system: UACC-257 melanoma
TK-10 renal = system: TK-10 renal
LOX IMVI melanoma = system: LOX IMVI melanoma
SF-295 CNS = system: SF-295 CNS
BT-549 breast = system: BT-549 breast
DU-145 prostate = system: DU-145 prostate

| Structure (SMILES) | TGI (M19-MEL melanoma) [µM] | TGI (HCC-2998 colon) [µM] | TGI (XF 498 CNS) [µM] | TGI (786-0 renal) [µM] | TGI (DMS 114 small cell lung) [µM] | TGI (UACC-257 melanoma) [µM] | TGI (TK-10 renal) [µM] | TGI (LOX IMVI melanoma) [µM] | TGI (SF-295 CNS) [µM] | TGI (BT-549 breast) [µM] | TGI (DU-145 prostate) [µM] | GI50 (M19-MEL melanoma) [µM] | GI50 (HCC-2998 colon) [µM] | GI50 (786-0 renal) [µM] | GI50 (TK-10 renal) [µM] | GI50 (LOX IMVI melanoma) [µM] | GI50 (DU-145 prostate) [µM] |
| --- | --- | --- | --- | --- | --- | --- | --- | --- | --- | --- | --- | --- | --- | --- | --- | --- | --- |
| CCOC(=O)c1oc2ccc(OC)c3c2c1CCC3 | > 100 | > 100 | > 100 | > 100 | > 100 | 40 | > 100 | > 100 | > 100 | – | – | – | – | – | – | – | – |
| COc1cc2c(cc1OC(=O)CC(C)O)C1C(OC2=O)C(OC(C)=O)C=C2CCN(C)[C@H]21 (stereo not given in full) | > 100 | > 100 | 38.6 | 53.7 | – | > 100 | 65.1 | > 100 | 49.9 | – | – | – | – | – | – | – | – |
| CCOC(=O)C1=C(NC)OC/C1=N\NC(=O)c1ccccc1O | > 100 | > 100 | > 100 | > 100 | 89.6 | 17.3 | > 100 | 70.4 | > 100 | – | – | – | – | – | – | – | – |
| COc1cc(C(=O)C/C(CCC(=O)Nc2ccccc2[N+](=O)[O-])=N\NC(=O)CC#N)ccc1O | > 100 | > 100 | > 100 | > 100 | – | > 100 | > 100 | > 100 | > 100 | – | – | – | – | – | – | – | – |
| CCC1CN2CCc3cc(OC)c(OC)cc3C2CC1CC1c2cc(OC)c(OC)cc2CCN1C(=O)C1CCCN1C(=O)OCc1ccccc1 (stereo not given) | 28.8 | 30 | 30.4 | 40.8 | 26.9 | 30.8 | 38.6 | 29.1 | 30.4 | – | – | – | – | – | – | – | – |
| CCCCNCC(=O)O[C@]1(CC)C(=O)OCc2c1cc1n(c2=O)Cc2cc3ccccc3nc2-1 | 6.21 | 8.76 | 2.92 | 0.946 | 4.69 | 8.19 | > 96.5 | 1.43 | 11.7 | 8.36 | 1.32 | – | – | – | – | – | – |
| Cn1cnc2nc(Cl)nc(NC(C)(C)C(C)(C)O)c21 | – | > 100 | > 100 | > 100 | > 100 | > 100 | > 100 | – | > 100 | – | – | – | – | – | – | – | – |
| CC(=O)OC1CCn2nnc(CO[Si](C)(C)C(C)(C)C)c21 (stereo not given) | – | > 100 | > 100 | > 100 | > 100 | > 100 | > 100 | – | > 100 | – | – | – | – | – | – | – | – |
| O=C(O)C1(P(=O)(O)O)CC1 | > 100 | > 100 | > 100 | > 100 | > 100 | > 100 | > 100 | – | > 100 | – | – | – | – | – | – | – | – |
| Cc1cc2c(C)n(Cc3ccc(Cl)cc3Cl)nc2c(C#N)c1C | > 100 | > 100 | 23 | 37.4 | > 100 | > 100 | 68.4 | > 100 | 60.9 | – | – | – | – | – | – | – | – |
| Nn1c(-c2ccccc2Cl)nc2ccccc2c1=O | > 100 | > 100 | > 100 | > 100 | > 100 | > 100 | > 100 | – | > 100 | – | – | – | – | – | – | – | – |
| c1ccc(SC(CCCCC(Sc2ccccc2)Sc2ccccc2)Sc2ccccc2)cc1 | > 100 | > 100 | > 100 | > 100 | > 100 | > 100 | > 100 | > 100 | > 100 | – | – | – | – | – | – | – | – |
| Cc1c(C#N)c(=O)[nH]c(=O)n1CCN1CCN(C(=O)NCCCCCCNC(=O)N2CCN(CCn3c(C)c(C#N)c(=O)[nH]c3=O)CC2)CC1 | > 100 | > 100 | > 100 | > 100 | > 100 | > 100 | > 100 | > 100 | > 100 | – | – | – | – | – | – | – | – |
| O=S(=O)(c1ccccc1)C(CN1CCCCC1)S(=O)(=O)c1ccccc1 | > 100 | > 100 | > 100 | > 100 | – | > 100 | > 100 | > 100 | > 100 | – | – | – | – | – | – | – | – |
| COC1CC(OS(=O)(=O)c2ccc(C)cc2)C(OC(=O)c2ccccc2)C(C)O1 (stereo not given) | > 100 | > 100 | > 100 | > 100 | > 100 | > 10 | > 100 | > 100 | > 100 | – | – | > 100 | > 100 | > 100 | > 100 | > 100 | – |
| CCOC(=O)C(=O)Nc1c(CC)cccc1C(C)C | > 100 | > 100 | > 100 | > 100 | – | > 100 | > 100 | > 100 | > 100 | – | – | – | – | – | – | – | – |
| O=C1OC(CCCl)(c2ccccc2)CC1CN1CCOCC1 (stereo not given) | 45.6 | > 100 | 29.3 | 24.4 | 42.9 | 73.4 | 30.5 | 83.1 | > 100 | – | – | – | – | – | – | – | – |
| COc1ccc(OC)c(NC(=O)CCC/C(CC(=O)c2ccc(O)c(OC)c2)=N\NC(=O)C[N+](C)(C)C)c1 | > 100 | > 100 | > 100 | > 100 | > 100 | > 100 | > 100 | > 100 | > 100 | – | – | – | – | – | – | – | – |
| C[C@]12CCC3[C@@H](CC[C@@H]4c5nonc5CC[C@]34C)C1CCC(=O)N2 (stereo not given in full) | > 100 | > 100 | > 100 | > 100 | – | > 100 | > 100 | > 100 | > 100 | – | > 100 | – | > 100 | – | – | – | > 100 |
| Cc1cc(N(CCC#N)CCC#N)ccc1/C=C/C(=O)Nc1cccc(Cl)c1 | > 100 | > 100 | > 100 | > 100 | > 100 | > 100 | > 100 | > 100 | > 100 | – | – | – | – | – | – | – | – |
| CCOC(=O)C(C)(c1cn(C)c2ccccc12)c1cn(C)c2ccccc12 | > 100 | > 100 | > 100 | > 100 | > 100 | > 100 | > 100 | – | > 100 | – | – | – | – | – | – | – | – |
| CS(=O)(=O)Oc1cccc(/C=N/N=C(\N)NO)c1 | > 100 | 59.1 | 32.5 | 54.3 | > 100 | > 100 | 27.9 | – | > 100 | – | – | – | – | – | – | – | – |
